Here are results for 5 molecules from ChEMBL document CHEMBL1944508, “Identification of triazolopyridazinones as potent p38α inhibitors” (Bioorg Med Chem Lett, 2012).

The structures appear in SMILES notation.

Holding throughout (format): ADME, organism-based
Data set [1] is described as follows: Clearance in Sprague-Dawley rat at 2 mg/kg, iv. The arrangement: dose 2 mg/kg, route intravenous. The following applies: in vivo.
A short description of data set [2]: Volume of distribution at steady state in Sprague-Dawley rat at 2 mg/kg, iv. The following applies: in vivo, read-out: Vdss. Also on record: dose 2 mg/kg, route intravenous.
A short description of data set [3]: Half life in Sprague-Dawley rat at 2 mg/kg, iv. Also on record: dose 2 mg/kg, route intravenous. The following applies: in vivo.
Data set [4] is described as follows: AUC (0 to infinity) in Sprague-Dawley rat at 2 mg/kg, po. Also on record: time infinity, dose 2 mg/kg, route oral. The following applies: plasma.
Data set [5] in a line: Oral bioavailability in Sprague-Dawley rat at 2 mg/kg. The following applies: in vivo.
A short description of data set [6]: Clearance in rat. The following applies: in vivo.

The clearance is a measure of how efficiently the substance is removed, as volume per time. What is called half-life is how long it takes for the measured level to halve. A lower half-life goes with rapid decline. One may read the AUC(0-inf) as the area under the concentration-time curve extrapolated to infinity. High values mean high exposure, low ones low exposure. The bioavailability is dose-corrected exposure relative to a reference, in per cent. Read a low bioavailability as little systemic uptake. On to `Cc1c(F)cc(C(=O)NC2CC2)cc1-c1cc2nnc(-c3c(F)cccc3Cl)n2n(C)c1=O`, for which, in data set [1], the clearance was 8.77 mL/min/kg. The Vd in data set [2] is 2.42 L/kg. In data set [3], this molecule gave a half-life of 204 min. The molecule also displayed an AUC(0-inf) in data set [4] of 3190 ng·h/mL. Further, the bioavailability in data set [5] worked out at 83%.
The like results for `CCn1c(=O)c(-c2cc(C(=O)NC3CC3)cc(F)c2C)cc2nnc(-c3c(F)cccc3Cl)n21` were, in that order, 11.4 mL/min/kg, 2.7 L/kg, 166 min, 1370 ng·h/mL and 42%.
With `Cc1ccc(C(=O)NC2CC2)cc1-c1cc2cnn(-c3c(F)cccc3F)c2n(C)c1=O`, the clearance in data set [6] is 3.67 mL/min/kg.
In data set [1], `CCn1c(=O)c(-c2cc(C(=O)NC3CC3)ccc2C)cc2nnc(-c3c(F)cccc3Cl)n21` gave a clearance of 13.1 mL/min/kg. Further, the Vd in data set [2] came out at 2.54 L/kg. The molecule further had a half-life in data set [3] of 166 min. Besides, the AUC(0-inf) in data set [4] was found to be 1420 ng·h/mL. The bioavailability in data set [5] is 55%.
For the molecule `Cc1ccc(C(=O)NC2CC2)cc1-c1ccn2c(-c3c(F)cccc3F)nnc2c1`, the clearance in data set [6] was 6.17 mL/min/kg.
